Source: patent US20110182973A1, “POLYMERASE INHIBITORS AND THE USE THEREOF FOR THE TREATMENT OF TUMORS” (FREIE UNIVERSITAET BERLIN, priority 2007, published 2011)
“Also recorded” adds a separate entry of the source.

Key:
[1] = MTT test (viability) on HaCaT keratinocyte cell line; assay type: cell-based; conditions: human, 10^−4 M, read-out: Max. inhibition (%) (maximum decrease in viability)
[2] = test system: MCF-7; assay: MTT test (viability) on breast cancer cell line MCF-7; assay type: cell-based; conditions: Homo sapiens, MCF7, MCF-7, 10^−4 M, read-out: Max. inhibition (%) (maximum decrease in viability)
[3] = MTT test (viability) on colon carcinoma line HT-29; assay type: cell-based; conditions: Hat 29, 10^−4 M
[4] = MTT test (viability) on primary keratinocytes (NHK); assay type: cell-based; conditions: human, primary keratinocytes (NHK); MTT test, NHK, 10^−4 M; read-out: Max. inhibition (%) (maximum decrease in viability)
[5] = test system: primary keratinocytes; assay: as above; assay type: cell-based; conditions: for inhibition at 100 µM / IC50: Keratinocyte; for inhibition at 100 µM: read-out: max. inhibition; for IC50: 48 h stimulation, read-out: −lg IC50 [M] ± SEM (converted)
[6] = test system: SCC-25 cells; assay: MTT test (viability) on SCC-25 tumor cells; assay type: cell-based; conditions: for inhibition at 100 µM / IC50 / cytotoxicity at 100 µM: Homo sapiens; for inhibition at 100 µM: read-out: max. inhibition; for IC50: read-out: −lg IC50 [M] ± SEM (converted); for cytotoxicity at 100 µM: read-out: Max. inhibition (%) (maximum decrease in viability)
[7] = MTT test (viability) on dermal fibroblasts; assay type: cell-based; conditions: Fibrob., 10^−4 M, read-out: Max. inhibition (%) (maximum decrease in viability)
[8] = logP values; assay type: physicochemical
[9] = MTT test 48 h, primary keratinocytes, inhibitionmax = 100 − E, E = activity at 10^−4 M in %
[10] = MTT test, primary keratinocytes
[11] = MTT test 48 h, SCC-25 cells, inhibitionmax = 100 − E, E = activity at 10^−4 M in %
[12] = MTT test, 48 h stimulation, SCC-25 cells

In the case of `C[C@@]1(CO)[C@H](O)CC[C@@]2(C)[C@H]1CC[C@H]1C[C@@H]3C[C@@]12CC[C@]3(O)CO` [Aphidicolin], the cytotoxicity [1] is reported as 86%, the cytotoxicity at 100 µM [2] is reported as 61% and the “Max. inhibition (%) (maximum decrease in viability)” value [3] is reported as 70%. The cytotoxicity [4] was 44%, the inhibition at 100 µM [5, 9] was 46% and the IC50 [5, 10] was 5.62e-09 M. The inhibition at 100 µM [6, 11] was 66%, the IC50 [6, 12] was 5.13e-07 M and the cytotoxicity at 100 µM ([6]; MTT test, SCC-25, 10^−4 M) was 62%. For the same compound, the cytotoxicity [7] was 54%.
With `O=C(O)P(=O)(O)O` [Foscamet] the max. inhibition [5, 9] was “n.d. (−13%)”, the “Max. inhibition (%) (maximum decrease in viability)” value ([5]; MTT test, NHK, 10^−4 M) was 0% and the max. inhibition [6, 11] was 9%. For the same compound, the pIC50 [6, 12] was 5.87 ± 0.24 and the “Max. inhibition (%) (maximum decrease in viability)” value ([6]; MTT test, SCC-25, 10^−4 M) was 9%.
For `Cc1cn([C@H]2CC(=NO)[C@@H](CO)O2)c(=O)[nH]c1=O` [HM-1 oxime, 3′-deoxy-3′-hydroxyliminothymidine], the cytotoxicity [1] was 20%, the cytotoxicity [4] was 3% and the inhibition at 100 µM [5, 9] was 7%. It also gave an IC50 [5, 10] of 3.09e-08 M, an inhibition at 100 µM [6, 11] of 36% and an IC50 [6, 12] of 3.72e-08 M. The cytotoxicity at 100 µM ([6]; MTT test, SCC-25, 10^−4 M) was 30%.
`Cc1cn([C@H]2CC(=O)[C@@H](CO)O2)c(=O)[nH]c1=O` [HM-1, 3′-Deoxy-3′-oxothymidine] showed a cytotoxicity [1] of 16%, a cytotoxicity [4] of 23% and an inhibition at 100 µM [5, 9] of 24%. The inhibition at 100 µM [6, 11] was 47%, the IC50 [6, 12] was 4.47e-05 M and the cytotoxicity at 100 µM ([6]; MTT test, SCC-25, 10^−4 M) was 47%. For the same compound, the “cytotoxic / antiproliferative effect on tumor cells (SCC-25), in words” value ([6]; SCC-25 cells, FIG. 1, FIG. 2, Table 1) was “strong cytotoxic effect; also recorded: stronger than that of the two comparative substances 5-fluorouracil and aphidicolin”, the “selectivity: effect on SCC-25 tumor cells compared with keratinocytes, in words” value ([6]; SCC-25 vs primary keratinocytes (and HaCaT)) was “stronger than that in primary keratinocytes” and the logP [8] was -1.13.
`CCOC(=O)O[C@]1(C(=O)COC(=O)CC)CC[C@H]2[C@@H]3CCC4=CC(=O)C=C[C@]4(C)[C@H]3[C@@H](O)C[C@@]21C` [Prednicarbate] showed a logP [8] of 3.82.
Compound `C[C@]12C=CC(=O)C=C1CC[C@@H]1[C@@H]2[C@@H](O)C[C@@]2(C)[C@H]1CC[C@]2(O)C(=O)CO` [Prednisolone] has a logP [8] of 1.69.
For `O=c1[nH]cc(F)c(=O)[nH]1` [Substance 5-FU, 5-fluorouracil], the cytotoxicity [1] was 80%, the cytotoxicity at 100 µM [2] was 71% and the “Max. inhibition (%) (maximum decrease in viability)” value [3] was 66%. It also gave a cytotoxicity [4] of 41%, an inhibition at 100 µM [5, 9] of 44% and an IC50 [5, 10] of 1.05e-05 M. It also gave an inhibition at 100 µM [6, 11] of 42%, an IC50 [6, 12] of 1.05e-06 M and a cytotoxicity at 100 µM ([6]; MTT test, SCC-25, 10^−4 M) of 42%. For the same compound, the cytotoxicity [7] was 88%.
